Measured values published in US20220296534A1 (SOCIETE DES PRODUITS NESTLE S.A., priority 2019, published 2022).

How the values were obtained:
[1] = humans; cited from earlier work
human primary islets = assay: Glucose stimulated insulin secretion in human primary islets, insulin by ELISA; format: cell-based; conditions: 1 μM, FIG. 3
Protocol: The insulin concentration in the collected supernatants were measured by an ELISA kit according to the manufacturer recommendations and using a rat insulin antibody (Insulin rat high range ELISA Alpco Cat no 80-INSRTH-E10). Very briefly, rat monoclonal antibodies specific for insulin were immobilized to 96-well plates. Standards, samples and controls were added to the appropriate wells with a horseradish peroxidase enzyme-labeled monoclonal antibody (Conjugate). After incubation, the microplates were washed to remove unbound Conjugate and a TMB substrate solution was added to react with the bound Conjugate. Finally, after addition of a stop solution, the optical density was measured at 450 nm using a reference wavelength of 620 nm. The intensity of the yellow color is directly proportional to the amount of insulin within the samples. Human primary islets: Human islets from non-diabetic deceased male donors were purchased from Tebu-bio (Le-Perray-en-Yvelines, France). […] Insulin in supernatants was determined with specific ELISA kits, according to the manufacturer's instructions (Ultrasensitive Insulin ELISA, ALPCO Diagnostics, Salem, USA). […] Insulin was measured in the cell lysates using specific ELISA kits (Ultrasensitive Insulin ELISA, ALPCO Diagnostics) and normalised to DNA content.

INS-1 cells = assay: Glucose stimulated insulin secretion (GSIS) in INS-1 cells, insulin by ELISA; format: cell-based, rat; conditions: FIG. 2
Protocol: INS-1 cellular model: The β pancreatic INS-1 cells were selected for their insulin secretion profile in response to glucose and to other physiological or pharmacological insulin secretagogues such as sulfonylureas and GLP-1. The cells were cultured in complete medium, RPMI 1640 11 mM glucose supplemented with 1 mM sodium pyruvate, 50 μM 2-mercaptoethanol, 2 mM glutamine, 10 mM HEPES, 100 IU/mL penicillin, 100 μg/mL streptomycin and 10% heat-inactivated foetal calf serum (FCS), as described by Asfari et al. (Endocrinology 130: 167-178, 1992). For the insulin secretion assay, INS-1 cells were plated and cultured in 96-well poly ornithine coated plates. The day before insulin secretion test, the medium were removed and replaced by RPMI 5 mM glucose supplemented with FCS 1%. The day of the insulin secretion test, the cells were washed with Krebs-Ringer Bicarbonate HEPES buffer (KRBH; pH 7.4) 0.1% BSA and pre-incubated for 30 min at 37° C. in KRBH 0.1% BSA containing 2.8 mM glucose. The cells were then washed again with KRBH and incubated with the tested ingredients for 60 min in KRBH 0.1% BSA containing glucose (5 or 16 mM). The supernatants were collected and frozen before insulin determination. The insulin concentration in the collected supernatants were measured by an ELISA kit according to the manufacturer recommendations and using a rat insulin antibody (Insulin rat high range ELISA Alpco Cat no 80-INSRTH-E10). Very briefly, rat monoclonal antibodies specific for insulin were immobilized to 96-well plates. Standards, samples and controls were added to the appropriate wells with a horseradish peroxidase enzyme-labeled monoclonal antibody (Conjugate). After incubation, the microplates were washed to remove unbound Conjugate and a TMB substrate solution was added to react with the bound Conjugate. Finally, after addition of a stop solution, the optical density was measured at 450 nm using a reference wavelength of 620 nm. The intensity of the yellow color is directly proportional to the amount of insulin within the samples. […]

O[C@H]1[C@H](O)[C@@H](O)[C@H](O)[C@@H](O)[C@@H]1O [scyllo-inositol, (1r,2r,3r,4r,5r,6r)-Cyclohexane-1,2,3,4,5,6-hexol]
mean time to reach the maximum level after ingestion [1]: about 3.8 h | effect on insulin secretion over the control condition (5 mM glucose) (human primary islets): synergistic effect | glucose stimulated insulin secretion (GSIS), expressed as a percentage versus glucose (INS-1 cells; 20 μM scyllo-inositol): 120% | glucose stimulated insulin secretion (GSIS), expressed as a percentage versus glucose (INS-1 cells; 2000 μM scyllo-inositol): 142% | concentration at which GSIS reaches a plateau (INS-1 cells; doses from 20 to 2000 μM): 1000 to 2000 µM
